# Data from patent publication US20130317034A1, “COMBINATION THERAPY FOR TREATING DIABETES” (Japan Tobacco Inc., priority 2010, published 2013).
# Key:
# plasma GLP-1 = assay: Plasma GLP-1 level at the start of the GTT (GLP-1 (Active) ELISA); format: in vivo, rats
# Experimental: (§1) This example studied the combined effects of the compound of formula (I) and sitagliptin, i.e., a DPP-IV inhibitor, on plasma GLP-1 levels and glucose tolerance as evaluated in rats fed a high fat diet.
# (§2) After the rats were fasted for 24 hours, either the compound of formula (I) (30 mg/kg) or vehicle (0.5% MC) was dosed orally. The rats were immediately fed with a high-fat diet for six hours and fasted overnight. Glucose tolerance tests (GTTs) were performed 30 minutes after dosing either sitagliptin or vehicle (0.5% MC). Dosing for each group is described in Tables 1 and 2 below.
# (§3) At the start of the GTT, blood was collected to measure plasma GLP-1. The plasma glucose and insulin concentrations were measured before and after loading with the glucose solution. For the preparation of the glucose solution, glucose was diluted in saline at a concentration of 0.4 g/mL.
# For the GTT, the rats were fasted overnight after six hours feeding. On the following day, 600-700 μL of blood were collected from the tail vein into tubes containing a DPP-IV inhibitor, aprotinin, and EDTA. Thereafter, a glucose solution at a dose of 1 g/2.5 mL/kg was loaded intraperitoneally. […]
# After 200 μL of plasma sampled before the glucose loading were added with […] of ethanol, the solution was thoroughly mixed. […] The GLP-1 concentration was measured by the ELISA method using a GLP-1 (Active) ELISA kit.
# rats fed a high fat diet [1] = assay: Glucose tolerance test (GTT): plasma glucose levels; format: in vivo
# Experimental: as §1, §2, §3
# (§4) For the GTT, the rats were fasted overnight after six hours feeding. On the following day, 600-700 μL of blood were collected from the tail vein into tubes containing a DPP-IV inhibitor, aprotinin, and EDTA. Thereafter, a glucose solution at a dose of 1 g/2.5 mL/kg was loaded intraperitoneally. At 10, 30, 60, and 120 minutes after loading the glucose solution, 200-300 μL of blood were collected from the tail vein into tubes containing heparin. The blood was centrifuged at 10,000×g and 4° C. for five minutes to obtain the plasma.
# [2] = Food consumption, body weight gain and body weight in rats fed a high fat diet; format: in vivo; conditions: Mean ± S.E. (n = 8)
# Experimental: Forty-four eight week old male rats (Charles River Laboratories Japan, Inc.) were used for the experiment. Body weights and food weight were measured six days before and on the day before the dosing of the compound of formula (I). Body weight gain and food consumption were calculated for this period. Animals were fasted for 24 hours the day before dosing with the compound of formula (I). Using the body weights on the day of the dosing, body weight gain and food consumption as indicators, 32 rats were selected from those closest to the mean values. The rats were assigned to four groups (control, compound of formula (I) only, DPP-IV inhibitor only, and combination of compound of formula (I) and DPP-IV inhibitor) with eight animals in each group. One-way analysis of variance was performed using SAS Preclinical Package Version 5.0 and SAS System Version 8.2 (SAS Institute Japan Co., Ltd.) to verify that no significant intergroup differences were present after group allocation.
# as §2
# Food consumption was calculated according to the following formula: food consumption (g)=food weight before feeding (g)−food weight after feeding (g). Body weight gain was calculated according the following formula: body weight gain (g)=body weight after feeding (g)-body weight before feeding (g). There were no significant differences between the groups in food consumption and body weight gain for six hours after dosing, and in body weight at the start of GTT (Table 3).
# rats fed a high fat diet [3] = assay: Glucose tolerance test (GTT): plasma insulin levels; format: in vivo
# Experimental: as §1, §2, §3, §4
# [4] = 0 min after glucose loading (1 g/kg ip), compound of formula (I) 30 mg/kg PO, sitagliptin 10 mg/kg PO
# [5] = six hours high-fat feeding after dosing, compound of formula (I) 30 mg/kg PO
structure (smiles),measurement,setting,value
N[C@@H](CC(=O)N1CCn2c(nnc2C(F)(F)F)C1)Cc1cc(F)c(F)cc1F [sitagliptin],Plasma GLP-1 Level,"plasma GLP-1; at the start of the GTT, compound of formula (I) 30 mg/kg PO day before, sitagliptin 10 mg/kg PO 30 min before GTT, Mean ± S.E. (n = 8)",1.800 ± 0.270 pmol/L
same,"Plasma GLP-1 levels prior to glucose loading, in words",plasma GLP-1; versus control group,significantly higher
same,Plasma Glucose Level,rats fed a high fat diet [1]; [4],149 ± 6 mg/dL
same,Plasma Glucose Level,rats fed a high fat diet [1]; 10 min after glucose loading,264 ± 16 mg/dL
same,Plasma Glucose Level,rats fed a high fat diet [1]; 30 min after glucose loading,255 ± 12 mg/dL
same,Plasma Glucose Level,rats fed a high fat diet [1]; 60 min after glucose loading,185 ± 8 mg/dL
same,Plasma Glucose Level,rats fed a high fat diet [1]; 120 min after glucose loading,157 ± 5 mg/dL
same,"Plasma glucose levels in the GTT, in words","rats fed a high fat diet [1]; at 60 minutes after glucose loading, versus control group",significantly decreased
same,AUC of Plasma Glucose Level,"rats fed a high fat diet [1]; during the GTT, 0-120 min",24095 ± 981 mg·min/dL
same,"AUC for the glucose levels during the GTT, in words",rats fed a high fat diet [1]; versus control group,"lower than that for the control group, although there were no statistically significant differences"
same,Body Weight,[2]; before GTT,352.7 ± 6.9 g
same,Body Weight Gain,[2]; [5],15.5 ± 1.2 g
same,Food Consumption,[2]; [5],15.2 ± 1.3 g
same,Plasma Insulin Level,rats fed a high fat diet [3]; [4],2.350 ± 0.439 ng/mL
same,Plasma Insulin Level,rats fed a high fat diet [3]; 10 min after glucose loading,4.968 ± 0.562 ng/mL
same,Plasma Insulin Level,rats fed a high fat diet [3]; 30 min after glucose loading,4.595 ± 0.675 ng/mL
same,Plasma Insulin Level,rats fed a high fat diet [3]; 60 min after glucose loading,3.253 ± 0.749 ng/mL
same,Plasma Insulin Level,rats fed a high fat diet [3]; 120 min after glucose loading,3.046 ± 0.435 ng/mL
same,AUC of Plasma Insulin Level,"rats fed a high fat diet [3]; during the GTT, 0-120 min",438.898 ± 72.779 ng·min/mL
same,"Plasma insulin levels during the GTT, in words",rats fed a high fat diet [3]; versus control group,higher
